Measurements taken from patent US11992481B2, “Use of 2-substituted indazoles for the treatment and prophylaxis of autoimmune diseases” (Bayer Pharma Aktiengesellschaft, priority 2016, dated 2024).

These molecules were tested on THP-1 cells (assay: TNF-α secretion in THP-1 cells (LPS-triggered)). Settings: Homo sapiens, 0.05 μg/ml LPS, 17 h, read-out: IC50 with respect to the secretion of TNF-α in THP-1 cells.
Assay type: cell-based
Experimental: With the aid of this test, it is possible to test substances for their ability to inhibit secretion of TNF-α (tumour necrosis factor alpha) in THP-1 cells (human monocytic acute leukaemia cell line). […] In this test, TNF-α secretion is triggered by incubation with bacterial lipopolysaccharide (LPS).
The cells were incubated at room temperature for 15 min. 2-2.5 μl of 0.1 μg/ml LPS (Sigma, Escherichia coli 055:B5, Cat. No. L5418) dissolved in cell culture medium (final concentration 0.05 μg/ml) were then dispensed into each well. As neutral control, cells were treated with 0.05 μg/ml LPS and 1% DMSO and, as inhibitor control, with 1% DMSO only.
The amount of TNF-α was determined using the TNF-alpha HTRF Detection Kit (Cisbio, Cat. No. 62TNFPEB/C). To this end, 2 μl of the detection solution in each case, consisting of anti-TNF-α-XL665 conjugate and anti-TNF-α-cryptate conjugate dissolved in the reconstitution buffer in accordance with the manufacturer's instructions, were added for the HTRF (Homogeneous Time-Resolved Fluorescence) test. After the addition, the mixture was incubated either at room temperature for 3 h or at 4° C. overnight.
The activity of the substances is expressed as the ratio between neutral and inhibitor control in percent. The IC50 values were calculated using a 4-parameter fit.
`COCCn1cc2cc(NC(=O)c3cccc(C(F)(F)F)n3)c(C(C)(C)O)cc2n1` [Example 1, N-[6-(2-Hydroxypropan-2-yl)-2-(2-methoxyethyl)-2H-indazol-5-yl]-6-(trifluoromethyl)pyridine-2-carboxamide] showed an IC50 of 1 nM.
Work on `COCCn1cc2cc(NC(=O)c3cccc(C(F)(F)F)n3)c(CO)cc2n1` [Example 2, N-[6-(Hydroxymethyl)-2-(2-methoxyethyl)-2H-indazol-5-yl]-6-(trifluoromethyl)pyridine-2-carboxamide] yielded an IC50 of 15.1 nM.
Work on `COCCCn1cc2cc(NC(=O)c3cccc(C(F)(F)F)n3)c(CO)cc2n1` [Example 4, N-[6-(Hydroxymethyl)-2-(3-methoxypropyl)-2H-indazol-5-yl]-6-(trifluoromethyl)pyridine-2-carboxamide] yielded an IC50 of 5.6 nM.
Work on `CC(C)(O)c1cc2nn(CCO)cc2cc1NC(=O)c1cccc(C(F)(F)F)n1` [Example 5, N-[2-(2-Hydroxyethyl)-6-(2-hydroxypropan-2-yl)-2H-indazol-5-yl]-6-(trifluoromethyl)pyridine-2-carboxamide] yielded an IC50 of 5.4 nM.
With `CC(C)(O)c1cc2nn(CCCO)cc2cc1NC(=O)c1cccc(C(F)(F)F)n1` [Example 6, N-[6-(2-Hydroxypropan-2-yl)-2-(3-hydroxypropyl)-2H-indazol-5-yl]-6-(trifluoromethyl)pyridine-2-carboxamide] the IC50 was 0.9 nM.
Work on `O=C(Nc1cc2cn(CCO)nc2cc1CO)c1cccc(C(F)(F)F)n1` [Example 7, N-[2-(2-Hydroxyethyl)-6-(hydroxymethyl)-2H-indazol-5-yl]-6-(trifluoromethyl)pyridine-2-carboxamide] yielded an IC50 of 16.4 nM.
With `CC(C)(O)c1cc2nn(CC3COC3)cc2cc1NC(=O)c1cccc(C(F)(F)F)n1` [Example 8, N-[6-(2-Hydroxypropan-2-yl)-2-(oxetan-3-ylmethyl)-2H-indazol-5-yl]-6-(trifluoromethyl)pyridine-2-carboxamide] the IC50 was 1 nM.
In the case of `O=C(Nc1cc2cn(CC3COC3)nc2cc1CO)c1cccc(C(F)(F)F)n1` [Example 9, N-[6-(Hydroxymethyl)-2-(oxetan-3-ylmethyl)-2H-indazol-5-yl]-6-(trifluoromethyl)pyridine-2-carboxamide], the IC50 is reported as 6.5 nM.
`CC(C)(O)c1cc2nn(CCCS(C)(=O)=O)cc2cc1NC(=O)c1cccc(C(F)(F)F)n1` [Example 10, N-{6-(2-Hydroxypropan-2-yl)-2-[3-(methylsulphonyl)propyl]-2H-indazol-5-yl}-6-(trifluoromethyl)pyridine-2-carboxamide] was tested, and the IC50 was 1 nM.
Molecule `CC(C)(O)CCn1cc2cc(NC(=O)c3cccc(C(F)F)n3)c(C(C)(C)O)cc2n1` [Example 13, 6-(Difluoromethyl)-N-[2-(3-hydroxy-3-methylbutyl)-6-(2-hydroxypropan-2-yl)-2H-indazol-5-yl]pyridine-2-carboxamide] has an IC50 of 0.1 nM.
`CC(C)(O)c1cc2nn(CCS(C)(=O)=O)cc2cc1NC(=O)c1cccc(C(F)F)n1` [Example 14, 6-(Difluoromethyl)-N-{6-(2-hydroxypropan-2-yl)-2-[2-(methylsulphonyl)ethyl]-2H-indazol-5-yl}pyridine-2-carboxamide] gave an IC50 of 0.2 nM.
With `CC(C)(O)c1cc2nn(CCCO)cc2cc1NC(=O)c1cccc(C(F)F)n1` [Example 15, 6-(Difluoromethyl)-N-[6-(2-hydroxypropan-2-yl)-2-(3-hydroxypropyl)-2H-indazol-5-yl]pyridine-2-carboxamide] the IC50 was 0.2 nM.
`CC(C)(O)c1cc2nn(CCCC(F)(F)F)cc2cc1NC(=O)c1cccc(C(F)(F)F)n1` [Example 16, N-[6-(2-Hydroxypropan-2-yl)-2-(4,4,4-trifluorobutyl)-2H-indazol-5-yl]-6-(trifluoromethyl)pyridine-2-carboxamide] showed an IC50 of 0.2 nM.
With `CC(C)(O)c1cc2nn(CCCOC(F)(F)F)cc2cc1NC(=O)c1cccc(C(F)(F)F)n1` [Example 17, N-{6-(2-Hydroxypropan-2-yl)-2-[3-(trifluoromethoxy)propyl]-2H-indazol-5-yl}-6-(trifluoromethyl)pyridine-2-carboxamide] the IC50 was 0.5 nM.
`CC(C)(O)c1cc2nn(CCCOCC(F)(F)F)cc2cc1NC(=O)c1cccc(C(F)(F)F)n1` [Example 18, N-{6-(2-Hydroxypropan-2-yl)-2-[3-(2,2,2-trifluoroethoxy)propyl]-2H-indazol-5-yl}-6-(trifluoromethyl)pyridine-2-carboxamide] was tested, and the IC50 was 0.3 nM.
For `Cc1nc(C(=O)Nc2cc3cn(CCC(C)(C)O)nc3cc2C(C)(C)O)ccc1F` [Example 19, 5-Fluoro-N-[2-(3-hydroxy-3-methylbutyl)-6-(2-hydroxypropan-2-yl)-2H-indazol-5-yl]-6-methylpyridine-2-carboxamide], the IC50 was 0.1 nM.
In the case of `Cc1cccc(C(=O)Nc2cc3cn(CCC(C)(C)O)nc3cc2C(C)(C)O)n1` [Example 20, N-[2-(3-Hydroxy-3-methylbutyl)-6-(2-hydroxypropan-2-yl)-2H-indazol-5-yl]-6-methylpyridine-2-carboxamide], the IC50 is reported as 0.2 nM.
`CC(C)(O)c1cccc(C(=O)Nc2cc3cn(CCCC(F)(F)F)nc3cc2C(C)(C)O)n1` [Example 21, 6-(2-Hydroxypropan-2-yl)-N-[6-(2-hydroxypropan-2-yl)-2-(4,4,4-trifluorobutyl)-2H-indazol-5-yl]pyridine-2-carboxamide] showed an IC50 of 1.8 nM.
